Laboratory results taken from ChEMBL document CHEMBL1137310, “Stereoselective chemoenzymatic synthesis of the four stereoisomers of l-2-(2-carboxycyclobutyl)glycine and pharmacological characterization at human excitatory amino acid transporter subtypes 1, 2, and 3” (J Med Chem, 2006).

Key:
[1] = target: Excitatory amino acid transporter 2 (Homo sapiens) (UniProt P43004); conditions: HEK293
Description: Substrate activity at human EAAT2 expressed in HEK293 cells by FLIPR membrane potential assay

[2] = target: T1, Excitatory amino acid transporter 3 (Homo sapiens) (UniProt P43005); assay: Substrate activity at human EAAT3 expressed in HEK293 cells by FLIPR membrane potential assay; type: functional, cell-based
T1 sequence (whole entry): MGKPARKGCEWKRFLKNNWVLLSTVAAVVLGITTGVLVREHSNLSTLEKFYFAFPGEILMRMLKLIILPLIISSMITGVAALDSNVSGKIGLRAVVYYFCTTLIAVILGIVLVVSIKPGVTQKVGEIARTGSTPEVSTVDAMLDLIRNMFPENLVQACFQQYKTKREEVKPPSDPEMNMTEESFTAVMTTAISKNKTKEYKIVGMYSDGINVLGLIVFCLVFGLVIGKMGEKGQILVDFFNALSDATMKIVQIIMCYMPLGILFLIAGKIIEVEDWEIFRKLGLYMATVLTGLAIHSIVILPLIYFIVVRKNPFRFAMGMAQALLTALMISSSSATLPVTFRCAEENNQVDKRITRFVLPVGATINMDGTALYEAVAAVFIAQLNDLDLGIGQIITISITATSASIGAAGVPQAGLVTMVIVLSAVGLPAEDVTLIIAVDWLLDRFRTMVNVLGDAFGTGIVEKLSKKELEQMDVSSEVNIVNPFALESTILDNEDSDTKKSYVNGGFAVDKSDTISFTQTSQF

[3] = target: Excitatory amino acid transporter 1 (Homo sapiens) (UniProt P43003); assay: Substrate activity at human EAAT1 expressed in HEK293 cells by FLIPR membrane potential assay; type: functional, cell-based
Sequence of Excitatory amino acid transporter 1 (Homo sapiens) (P43003 whole entry): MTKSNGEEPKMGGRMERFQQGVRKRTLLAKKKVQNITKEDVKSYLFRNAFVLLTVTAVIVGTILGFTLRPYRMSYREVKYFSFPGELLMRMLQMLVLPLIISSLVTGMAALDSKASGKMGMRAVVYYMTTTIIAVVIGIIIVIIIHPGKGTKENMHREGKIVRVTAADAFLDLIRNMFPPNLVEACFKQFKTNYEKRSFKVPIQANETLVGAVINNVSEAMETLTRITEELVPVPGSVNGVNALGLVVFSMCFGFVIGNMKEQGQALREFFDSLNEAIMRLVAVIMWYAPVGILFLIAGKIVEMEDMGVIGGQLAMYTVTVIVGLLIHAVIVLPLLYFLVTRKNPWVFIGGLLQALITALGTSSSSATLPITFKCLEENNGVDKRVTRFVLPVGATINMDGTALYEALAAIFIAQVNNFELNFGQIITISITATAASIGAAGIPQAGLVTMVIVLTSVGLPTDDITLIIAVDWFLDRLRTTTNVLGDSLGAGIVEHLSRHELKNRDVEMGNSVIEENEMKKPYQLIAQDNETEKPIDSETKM

[4] = target: T1, Excitatory amino acid transporter 3 (Homo sapiens); assay: Substrate activity at human EAAT3 expressed in HEK293 cells at 1000 uM relative to glutamate by FLIPR membrane potential assay; type: functional, cell-based
[5] = target: Excitatory amino acid transporter 1 (Homo sapiens) (UniProt P43003); assay: Substrate activity at human EAAT1 expressed in HEK293 cells at 1000 uM relative to glutamate by FLIPR membrane potential assay; type: functional, cell-based
[6] = target: Excitatory amino acid transporter 1 (Homo sapiens) (UniProt P43003); assay: Substrate activity at human EAAT1 expressed in HEK293 cells relative to glutamate by FLIPR membrane potential assay; type: functional, cell-based

Sequence of Excitatory amino acid transporter 2 (Homo sapiens) (P43004 whole entry): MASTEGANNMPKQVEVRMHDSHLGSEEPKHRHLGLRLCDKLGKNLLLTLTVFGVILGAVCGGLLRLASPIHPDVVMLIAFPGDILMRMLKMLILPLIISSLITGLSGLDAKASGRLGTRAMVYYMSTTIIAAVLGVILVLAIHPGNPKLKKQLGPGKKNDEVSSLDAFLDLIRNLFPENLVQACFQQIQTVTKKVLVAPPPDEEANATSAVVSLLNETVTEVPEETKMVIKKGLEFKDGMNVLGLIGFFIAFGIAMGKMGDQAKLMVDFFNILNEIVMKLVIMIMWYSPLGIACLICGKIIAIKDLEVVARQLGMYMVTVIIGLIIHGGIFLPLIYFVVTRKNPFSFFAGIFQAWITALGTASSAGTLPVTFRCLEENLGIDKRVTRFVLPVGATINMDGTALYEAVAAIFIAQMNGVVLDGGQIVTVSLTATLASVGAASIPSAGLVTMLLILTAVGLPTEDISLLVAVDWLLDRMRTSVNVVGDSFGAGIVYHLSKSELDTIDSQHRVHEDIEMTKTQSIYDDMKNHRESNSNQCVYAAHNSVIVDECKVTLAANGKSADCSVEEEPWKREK

SMILES	pKm [1]	pKm [2]	pKm [3]	Activity [4]	Activity [5]	Activity [6]
N[C@@H](CCC(=O)O)C(=O)O	4.7	5	5.1	–	–	–
N[C@H](C(=O)O)[C@H]1CC[C@@H]1C(=O)O	–	–	–	48%	72%	–
N[C@H](C(=O)O)[C@@H]1CC[C@H]1C(=O)O	–	–	4	–	–	94%
